# Patent US7736677B2 (Metaproteomics, LLC, priority 2001, dated 2010)
# Marks after values point to notes of the source that are not given here.
# Legend:
# [1] = system: adiponectin; test: Adiponectin secretion in LPS/3T3-L1 adipocytes; type: cell-based, murine; settings: for induction of adiponectin secretion: any of the doses tested; for Concentration of maximum stimulation of adiponectin secretion: LPS-treated D5 3T3-L1 adipocytes
# [2] = system: adiponectin; test: Adiponectin secretion from insulin-resistant 3T3-L1 adipocytes; type: cell-based, murine
# [3] = system: IL-6; test: IL-6 secretion from TNFα-treated 3T3-L1 adipocytes; type: cell-based, murine; settings: 10 ng TNFα/ml
# [4] = system: adiponectin; test: Adiponectin secretion from TNFα-treated 3T3-L1 adipocytes; type: cell-based, murine
# Experimental: For two days, the cells were allowed grow to reach confluence. […] Adiponectin Assay—The adiponectin secreted into the medium was quantified using the Mouse Adiponectin Quantikine® Immunoassay kit with no modifications (R&D Systems, Minneapolis, Minn.). […] Statistical Calculations and Interpretation—All assays were preformed in duplicate. […] Differences among the doses and test agents were determined using the Student's t-test without correction for multiple comparisons; the nominal five percent probability of a type I error was selected.
# [5] = system: IL-6; test: IL-6 secretion in LPS/3T3-L1 adipocytes; type: cell-based, murine; settings: at the dose providing maximum inhibition; for IL-6 Index: indexed to LPS control
# [6] = molecular target: PKBγ (Homo sapiens, UniProt Q9Y243); test: KinaseProfiler Assay; type: biochemical; settings: 5 ug/ml, read-out: effect (as % of Control)
# [7] = molecular target: PKCβII (Homo sapiens, UniProt P05771); test: KinaseProfiler Assay; type: biochemical; settings: 5 ug/ml, read-out: effect (as % of Control)
# [8] = system: IL-6; test: IL-6 secretion from insulin-resistant 3T3-L1 adipocytes; type: cell-based, murine; settings: high insulin
# [9] = system: db/db mice; type: in vivo, mouse; settings: three consecutive days
# [10] = system: DBA/J mice; test: Collagen induced rheumatoid arthritis murine model; type: in vivo, mouse
# [11] = at the concentration of maximum stimulation
# Sequence of PKCβII (P05771 1-673 isoform P05771-2): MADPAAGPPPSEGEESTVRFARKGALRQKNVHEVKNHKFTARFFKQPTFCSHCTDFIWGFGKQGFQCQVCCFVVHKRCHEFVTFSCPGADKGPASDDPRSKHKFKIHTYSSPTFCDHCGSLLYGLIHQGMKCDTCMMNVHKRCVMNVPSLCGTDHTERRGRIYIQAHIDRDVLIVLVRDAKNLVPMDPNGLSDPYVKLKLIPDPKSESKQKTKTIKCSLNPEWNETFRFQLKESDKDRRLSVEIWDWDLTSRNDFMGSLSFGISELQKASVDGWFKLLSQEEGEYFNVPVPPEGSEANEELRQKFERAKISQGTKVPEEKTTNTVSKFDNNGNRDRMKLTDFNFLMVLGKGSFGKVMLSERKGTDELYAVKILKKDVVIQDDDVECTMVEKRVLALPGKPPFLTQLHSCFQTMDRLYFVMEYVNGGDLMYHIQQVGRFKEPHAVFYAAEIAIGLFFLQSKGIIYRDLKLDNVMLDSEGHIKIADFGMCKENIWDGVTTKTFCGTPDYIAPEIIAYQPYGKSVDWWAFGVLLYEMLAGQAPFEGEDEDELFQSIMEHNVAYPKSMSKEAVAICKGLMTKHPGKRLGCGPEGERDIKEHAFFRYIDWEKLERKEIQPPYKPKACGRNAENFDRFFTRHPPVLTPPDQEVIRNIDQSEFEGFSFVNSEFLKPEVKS
# Sequence of PKBγ (Q9Y243 whole entry): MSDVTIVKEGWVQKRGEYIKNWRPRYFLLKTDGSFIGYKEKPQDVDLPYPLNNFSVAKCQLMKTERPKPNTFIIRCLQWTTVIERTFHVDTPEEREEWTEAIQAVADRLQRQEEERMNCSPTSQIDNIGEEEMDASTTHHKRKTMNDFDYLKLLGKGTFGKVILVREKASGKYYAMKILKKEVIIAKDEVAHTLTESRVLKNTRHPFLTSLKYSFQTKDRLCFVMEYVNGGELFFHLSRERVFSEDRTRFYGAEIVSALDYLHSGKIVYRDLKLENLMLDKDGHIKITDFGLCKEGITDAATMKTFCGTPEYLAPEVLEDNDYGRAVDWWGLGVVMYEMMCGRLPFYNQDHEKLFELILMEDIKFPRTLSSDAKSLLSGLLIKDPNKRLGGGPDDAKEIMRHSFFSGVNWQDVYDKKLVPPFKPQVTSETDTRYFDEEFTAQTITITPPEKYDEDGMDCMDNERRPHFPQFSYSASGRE
structure (smiles),measurement,setting,value
"CC(=O)Oc1ccccc1C(=O)O [Aspirin, aspirin]",induction of adiponectin secretion,[1],failed to induce adiponectin secretion
"CC(C)CCC1=C(O)C(C(=O)C(C)C)=C(O)C(CCC(C)C)(CCC(C)C)C1=O [Hexahydro colupulone, hexahydrocolupulone]",Test Material at Half Maximal Secretion,[2]; slope of Hofstee plots,3.2 µg/mL
"COc1ccc2c(c1)c(CC(=O)O)c(C)n2C(=O)c1ccc(Cl)cc1 [Indomethacin, indomethacin]",IL-6 secretion in the presence of TNFα,[3],no anti-inflammatory effect
same,% Stimulation of adiponectin secretion (maximum),[1]; [11],9%
"CCc1ccc(CCOc2ccc(CC3SC(=O)NC3=O)cc2)nc1 (centres unmarked) [Pioglitazone, pioglitazone]",Concentration of maximum adiponectin secretion over four doses,"[4]; 10 ng TNFα/ml, Example 17",1.25 µg/mL
same,"Adiponectin Index, Observed","[4]; 1.0 μg/ml, indexed to TNFα control (Table 26)",1.80
same,IL-6 Index,[5],0.37*
same,Concentration of maximum stimulation of adiponectin secretion,[1],1.25 µg/mL
same,% Stimulation of adiponectin secretion (maximum),[1]; [11],12%
"Cc1c(C)c2c(c(C)c1O)CCC(C)(COc1ccc(CC3SC(=O)NC3=O)cc1)O2 (centres unmarked) [Troglitazone, troglitazone]",Adiponectin/IL-6,"[2]; 5.0 μg/ml, ratio of adiponectin index to IL-6 index (Table 21)",1.12
same,Concentration of maximum stimulation of adiponectin secretion,[1],0.625 µg/mL
same,% Stimulation of adiponectin secretion (maximum),[1]; [11],15%
"COc1cc(O)c(CC=C(C)C)c(O)c1C(=O)/C=C/c1ccc(O)cc1 [Xanthohumol, xanthohumol]",remaining activity at 5 µg/mL,[6],104%
same,remaining activity at 5 µg/mL,[7],108%
same,IL-6 secretion,[8],Significant decreases in IL-6 secretion
CC(C)Cc1ccc(C(C)C(=O)O)cc1 (centres unmarked) [ibuprofen],% Stimulation of adiponectin secretion (maximum),[1]; [11],22%
CN(C)C(=N)N=C(N)N [metformin],serum glucose relative to the controls,[9],decreased
C[C@]12C=CC(=O)C=C1CC[C@@H]1[C@@H]2[C@@H](O)C[C@@]2(C)[C@H]1CC[C@]2(O)C(=O)CO [prednisolone],arthritic index,"[10]; 10 mg/kg, days 30-42",Significant reductions
same,serum IL-6 levels,"[10]; mouse, in vivo",reached a statistical significance
O=C(O)c1ccccc1O [salicylic acid],% Inhibition of IL-6 secretion (maximum),[5],48* %
same,IL-6 Index,[5],0.52*
same,induction of adiponectin secretion,[1],failed to induce adiponectin secretion
same,Adiponectin Index,"[1]; at the concentration of maximum stimulation, indexed to LPS control",0.96
